Experimental findings from patent US5334528A (priority 1989, dated 1994) are described below.

Molecules are shown by their SMILES. “And” between values parts separate entries of the source, which are not always exact repeats. Equal entries are not always repeated. Structures can show the parent of a compound that is named as a salt.

The assay deals with monoclonal antibody from hybridoma Hept-2. In kind it is binding, mice.
As for `O=S1OCC2C(CO1)C1(Cl)C(Cl)=C(Cl)C2(Cl)C1(Cl)Cl` (stereo not shown) [Endosulfan (mix), 6,7,8,9,10,10-Hexachloro-1,5,5a,6,9,9a-hexahydro-6,9,-methano-2,4,3-benzo[e]-dioxathiepin-3-oxide], the “% Crossreactivity” value stood at 173%. In the case of `O=[N+]([O-])c1ccccc1O` [2-nitro-phenol], the “% Crossreactivity” value is recorded as 0%. Regarding `ClC1=C(Cl)C2(Cl)C3C(Cl)C=CC3C1(Cl)C2(Cl)Cl` (stereo not drawn) [heptachlor, 1,-exo-,4,5,6,7,8,8,-Heptachloro-3a,4,7,7a-tetrahydro-4,7-methanoindene], the “% Crossreactivity” value is 100%; the I50 was 2-4 ng/well and 1-10 ng/well. Consider `Oc1cc(Cl)c(Cl)cc1O` [4,5-diCl-catecol], for which the “% Crossreactivity” value came to 0%. Same read-out and setting: next, `Oc1ccc(Cl)cc1Cl` [2,4-diCl-phenol]: 0%; `O=[N+]([O-])c1cc(Cl)cc(Cl)c1O` [2,4-diCl-6-nitrophenol]: 0%; `Oc1ccccc1Cl` [2-Cl-phenol]: 0%. On to `O=[N+]([O-])c1ccc(O)cc1` [4-nitro-phenol], for which the “% Crossreactivity” value turned out to be 0%.

Take `O=C1C2(Cl)C3(Cl)C4(Cl)C(Cl)(Cl)C5(Cl)C3(Cl)C1(Cl)C5(Cl)C24Cl` (stereo not shown) [Kepone, Decachloro-octahydro-1,3,4,-metheno-2H-cyclobuta(cd) pentalen-2-one]: the “% Crossreactivity” value worked out at 5%. As to `Oc1cc(Cl)c(Cl)cc1Cl` [2,4,5-triCl-phenol], the “% Crossreactivity” value came out at 0%. Turning to `Clc1cccc(Cl)c1` [1,3-diCl-Bz], the “% Crossreactivity” value is given as 0%.

Take `Oc1c(Cl)c(Cl)c(Cl)c(Cl)c1Cl` [penta-Cl-phenol]: the “% Crossreactivity” value is on record as 0%. For the compound `ClC1=C(Cl)C(Cl)(Cl)C(Cl)=C1Cl` [hexa-Cl-cyclopentadiene], the “% Crossreactivity” value is 1.6%.

For `Oc1c(Cl)cc(Cl)cc1Cl` [2,4,6-triCl-phenol], the “% Crossreactivity” value is on record as 0%. With `OCC(Cl)(Cl)Cl` [2,2,2-tri-Cl-ethanol], the “% Crossreactivity” value stood at 0.4%. On the same count and under the same terms, then `O=S1(=O)OCC2C(CO1)C1(Cl)C(Cl)=C(Cl)C2(Cl)C1(Cl)Cl` (stereo not shown) [Endosulfansulfate, endosulfan sulfate], with 182%. Turning to `ClC1=C(Cl)C2(Cl)C3C(Cl)C(Cl)CC3C1(Cl)C2(Cl)Cl` (stereo not shown) [chlordane, 2,3,4,5,6,7,8,8-Octachloro-2,3,3a,4,7,7a-hexahydro-4,7-methanoindene], the “% Crossreactivity” value was 75% and the I50 is listed as 1-10 ng/well.

For `ClC(Cl)(Cl)C(Cl)(Cl)Cl` [hexa-Cl-ethane], the “% Crossreactivity” value came to 0%. Turning to `Clc1ccc(Cl)c(Cl)c1` [1,2,4-triCl-Bz], the “% Crossreactivity” value was 0%. On to `O=[N+]([O-])c1cc(Cl)ccc1Cl` [2,5-diCl-nitroBz], for which the “% Crossreactivity” value worked out at 0%. Consider `ClC1=C(Cl)C2(Cl)C3C4OC4C(Cl)C3C1(Cl)C2(Cl)Cl` (stereo not shown) [heptachlor epoxide], for which the “% Crossreactivity” value was 100% and the I50 was 1-10 ng/well. Take `Oc1ccccc1` [phenol]: the “% Crossreactivity” value is listed as 0%. The same measure, in the same setting: next, `Clc1ccc2ccccc2c1` [2-Cl-naphthalene]: 0%; `O=C(O)COc1ccc(Cl)cc1Cl` [2,4-D]: 0%; `ClC1C(Cl)C(Cl)C(Cl)C(Cl)C1Cl` (stereo not shown) [Lindand (BHC), 1,2,3,4,5,6-Hexachlorocyclohexane]: 7.3%.

`O=S1OCC2C(CO1)C1(Cl)C(Cl)=C(Cl)C2(Cl)C1(Cl)Cl` (stereo not drawn) [a-Endosulfan, alpha-endosulfan]: the “% Crossreactivity” value is on record as 43%.

In the case of `O=C(O)COc1cc(Cl)c(Cl)cc1Cl` [2,4,5-triCl-phenoxyacetic acid], the “% Crossreactivity” value is reported as 0%. Consider `ClC1=C(Cl)C2(Cl)C3C4C=CC(C4)C3C1(Cl)C2(Cl)Cl` (stereo not drawn) [aldrin, 1,2,3,4,10,10-Hexachloro-1,4,4a,5,8,8a hexahydro-1,4-exo, endo-5,8,-dimethanonaphthalene (HHDN)], for which the “% Crossreactivity” value was 100% and the I50 is given as 1-10 ng/well.

In the case of `Cc1ccc(O)c(C)c1` [2,4-DiMe-phenol], the “% Crossreactivity” value is 0%. Take `O=S1OCC2C(CO1)C1(Cl)C(Cl)=C(Cl)C2(Cl)C1(Cl)Cl` (stereo not drawn) [β-Endosulfan, beta-endosulfan]: the “% Crossreactivity” value is reported as 250%.

Regarding `ClC(Cl)=C(Cl)C(Cl)=C(Cl)Cl` [hexa-Cl-butadiene], the “% Crossreactivity” value is recorded as 0.4%. With `Clc1ccc(C(c2ccc(Cl)cc2)C(Cl)(Cl)Cl)cc1` [DDT], the “% Crossreactivity” value was determined as 0%. For `Clc1ccccc1Cl` [1,2-diCl-Bz], the “% Crossreactivity” value is 0%. On the same count and under the same terms, next, `O=[N+]([O-])c1ccc(O)c([N+](=O)[O-])c1` [2,4-dinitro-phenol]: 0.2%; `Cc1cc(O)ccc1Cl` [4-Cl-3-Me phenol]: 0%. Regarding `ClC1=C(Cl)C2(Cl)C3C4CC(C5OC45)C3C1(Cl)C2(Cl)Cl` [endrin, (1R, 4S, 5R, 8S) 1,2,3,4,10,10-hexachloro-6,7-epoxy-1,4,4a,5,6,7,8,8a-octahydro-exo-5,8,dimethano-naphthalene], the “% Crossreactivity” value came out at 150% and the I50 was 1-10 ng/well.

As to `Clc1ccc(Cl)cc1` [1,4-diCl-Bz], the “% Crossreactivity” value was 0%. Still for that read-out and setting: then `Clc1ccccc1` [Chlorobenzene], with 0%.
